Measurements as given in ChEMBL document CHEMBL5346916, “Discovery of acridine-based LSD1 inhibitors as immune activators targeting LSD1 in gastric cancer” (Eur J Med Chem, 2023).
Calls of active or inactive are those of the source. The calls are words filed in the database; no cut-off is given here.

How the values were obtained:
[1] = biological target: T1, Lysine-specific histone demethylase 1A (Homo sapiens, UniProt O60341); test: Inhibition of recombinant LSD1 (unknown origin) expressed in Escherichia coli BL21(DE3) strain using H3K4me2 peptide as substrate at 10 uM incubated for 30 mins by fluorescence based analysis relative to control
[2] = biological target: T1, Lysine-specific histone demethylase 1A; test: Inhibition of recombinant LSD1 (unknown origin) expressed in Escherichia coli BL21(DE3) strain using H3K4me2 peptide as substrate incubated for 30 mins by fluorescence based analysis
[3] = test system: MFC; test: Antitumor activity against mouse MFC cells xenografted in 615 mouse model assessed as increase in IL-2 m-RNA level at 10 to 40 mg/kg, IG administered daily and measured every other day for 14 days; format: functional, organism-based; settings: dose 10-40 mg/kg, time 14.0 day
[4] = test system: BGC-823; test: Cytotoxicity against human BGC-823 cells co-cultured with T cells assessed as increase in IFN-gamma level at 2 uM measured after 5 days by Q-RT-PCR method; format: functional, cell-based; settings: time 5.0 day
[5] = biological target: Programmed cell death protein 1/Programmed cell death 1 ligand 1 (Homo sapiens) (UniProt Q15116+Q9NZQ7); test: Inhibition of recombinant PD-1 binding to PD-L1 in human BGC-823 cells measured after 5 days by DAPI staining based confocal microscopy analysis; format: cell-based; settings: dose 1-4 µM, time 5.0 day
[6] = biological target: T1, Lysine-specific histone demethylase 1A; test: Binding affinity to recombinant LSD1 (unknown origin) assessed as thermal stability at 4 uM by thermal shift assay
[7] = test system: BGC-823; test: Antimigratory activity against human BGC-823 cells assessed as reduction in cell migration at 1 to 4 uM measured after 24 to 48 hrs by wound healing assay; format: functional, cell-based; settings: dose 1-4 µM, time 24-48 hrs
[8] = test system: MFC; test: Downregulation of PD-L1 mRNA level in […] cells at 1 to 4 uM incubated for 5 days by Q-RT-PCR analysis; format: functional, cell-based; settings: dose 1-4 µM, time 5.0 day
[9] = test system: BGC-823; test: Inhibition of stemness in human BGC-823 cells assessed as inhibition of SOX2 expression at 1 to 4 uM measured after 5 days by Western blot analysis; format: functional, cell-based; settings: dose 1-4 µM, time 5.0 day
[10] = test system: MFC; test: Antitumor activity against mouse MFC cells xenografted in 615 mouse model assessed as increase in IFN-gamma m-RNA level at 10 to 40 mg/kg, IG administered daily and measured every other day for 14 days; format: functional, organism-based; settings: dose 10-40 mg/kg, time 14.0 day
[11] = test system: BGC-823; test: Cytotoxicity against human BGC-823 cells co-cultured with T cells assessed as increase in TNF-alpha level at 2 uM measured after 5 days by Q-RT-PCR method; format: functional, cell-based; settings: time 5.0 day
[12] = biological target: T1, Lysine-specific histone demethylase 1A; test: Inhibition of LSD1 in human BGC-823 cells assessed as suppression of H3K4me2 methylation measured after 5 days by Western blot analysis; format: cell-based; settings: dose 1-4 µM, time 5.0 day
[13] = test system: MFC; test: Antitumor activity against mouse MFC cells xenografted in 615 mouse model assessed as decrease in PD-L1 level administered as IG daily and measured every other day for 14 days by Western blot analysis; format: functional; settings: dose 10-40 mg/kg, time 14.0 day
[14] = test system: BGC-823; test: Downregulation of PD-L1 mRNA level in human BGC-823 cells at 1 to 4 uM incubated for 5 days by Q-RT-PCR analysis; format: functional, cell-based; settings: dose 1-4 µM, time 5.0 day
[15] = test system: BGC-823; test: Inhibition of stemness in human BGC-823 cells assessed as inhibition of OCT4 expression at 1 to 4 uM measured after 5 days by Western blot analysis; format: functional, cell-based; settings: dose 1-4 µM, time 5.0 day
[16] = test system: BGC-823; test: Cytotoxicity against human BGC-823 cells co-cultured with T cells assessed as increase in CCR7 level at 2 uM measured after 5 days by Q-RT-PCR method; format: functional, cell-based; settings: time 5.0 day
[17] = test system: MFC; test: Antitumor activity against mouse MFC cells xenografted in 615 mouse model assessed as suppression in tumor growth administered as IG daily and measured every other day for 14 days by caliper method; format: functional; settings: dose 10-40 mg/kg, time 14.0 day
[18] = Cytotoxicity against […] cells at 2 uM incubated for 5 days by CCK-8 method relative to control; format: functional; settings: time 5 day
[19] = Toxicity in 615 mouse assessed as at 10 to 40 mg/kg, IG liver injury administered daily and measured every other day for 14 days; format: organism-based; settings: in vivo, po, 336 h, dose 10-40 mg/kg, time 14 day
[20] = test system: MFC; test: Antitumor activity against mouse MFC cells xenografted in 615 mouse model assessed as increase in TNF-alpha m-RNA level at 10 to 40 mg/kg, IG administered daily and measured every other day for 14 days; format: functional, organism-based; settings: dose 10-40 mg/kg, time 14.0 day
[21] = test system: MFC; test: Downregulation of PD-L1 level in […] cells incubated for 5 days by Western blot analysis; format: functional, cell-based; settings: dose 1-4 µM, time 5.0 day
[22] = test system: BGC-823; test: Downregulation of PD-L1 level in human BGC-823 cells incubated for 5 days by Western blot analysis; format: functional, cell-based; settings: dose 1-4 µM, time 5.0 day
[23] = test system: BGC-823; test: Inhibition of stemness in human BGC-823 cells assessed as inhibition of CD44 expression at 1 to 4 uM measured after 5 days by Western blot analysis; format: functional, cell-based; settings: dose 1-4 µM, time 5.0 day
[24] = Toxicity in 615 mouse assessed as change in body weight at 10 to 40 mg/kg, IG administered daily and measured every other day for 14 days; format: organism-based; settings: in vivo, po, 336 h, dose 10-40 mg/kg, time 14 day
[25] = test system: BGC-823; test: Cytotoxicity against human BGC-823 cells co-cultured with T cells assessed as increase in IL-2 level at 2 uM measured after 5 days by Q-RT-PCR method; format: functional, cell-based; settings: time 5.0 day
[26] = Toxicity in 615 mouse assessed as at 10 to 40 mg/kg, IG kidney injury administered daily and measured every other day for 14 days; format: organism-based; settings: in vivo, po, 336 h, dose 10-40 mg/kg, time 14 day
[27] = test system: BGC-823; test: Cytotoxicity against human BGC-823 cells co-cultured with T cells assessed as increase in 4-1BB level at 2 uM measured after 5 days by Q-RT-PCR method; format: functional, cell-based; settings: time 5.0 day
[28] = test system: MFC; test: Antitumor activity against mouse MFC cells xenografted in 615 mouse model assessed as reduction in tumor weight at 10 to 40 mg/kg, IG administered daily and measured every other day for 14 days […]; format: functional, organism-based; settings: dose 10-40 mg/kg, time 14.0 day
[29] = test system: BGC-823; test: Cytotoxicity against human BGC-823 cells co-cultured with T cells assessed as reduction in cell viability measured after 5 days by CCK8 method; format: functional, cell-based; settings: dose 1-4 µM, time 5.0 day
[30] = biological target: T1, Lysine-specific histone demethylase 1A; test: Inhibition of LSD1 (unknown origin) human BGC-823 cells assessed as suppression of H3K4me1 methylation measured after 5 days by Western blot analysis; format: cell-based; settings: dose 1-4 µM, time 5.0 day

## c1ccc2c(NCCN3CCOCC3)c3ccccc3nc2c1
[1]
  inhibition: 22.4%

## c1ccc2c(Nc3ccc4c(c3)OCCO4)c3ccccc3nc2c1
[1]
  inhibition: 97.7%
[2]
  IC50: 850 nM

## CN1CCN(c2ccc(Nc3c4ccccc4nc4ccccc34)cc2)CC1
[3]
  Activity: Active
[4]
  Activity: Active
[5]
  inhibition: Dose-Dependent Effect
[1]
  inhibition: 100%
[6]
  Activity: Active
[7]
  Activity: Active
[8]
  Activity: Active
[9]
  inhibition: Active
[10]
  Activity: Active
[11]
  Activity: Active
[12]
  inhibition: Dose-Dependent Effect
[13]
  Activity: Dose-Dependent Effect
[14]
  Activity: Active
[2]
  IC50: 73 nM
[15]
  inhibition: Active
[16]
  Activity: Active
[17]
  Activity: Dose-Dependent Effect
[18]
  Activity: <10%
[19]
  Activity: Non-Toxic
[20]
  Activity: Active
[21]
  Activity: Dose-Dependent Effect
[22]
  Activity: Dose-Dependent Effect
[23]
  inhibition: Active
[24]
  Activity: Toxic
[25]
  Activity: Active
[26]
  Activity: Non-Toxic
[27]
  Activity: Active
[28]
  Activity: Active
[29]
  Activity: Dose-Dependent Effect
[30]
  inhibition: Dose-Dependent Effect

## Cc1cnc(NS(=O)(=O)c2ccc(Nc3c4ccccc4nc4ccccc34)cc2)o1
[1]
  inhibition: 19.2%

## c1ccc2c(NN3CCCCC3)c3ccccc3nc2c1
[1]
  inhibition: 95.3%
[2]
  IC50: 1660 nM

## c1ccc2c(Nc3ccc(N4CCNCC4)cc3)c3ccccc3nc2c1
[1]
  inhibition: 100%
[2]
  IC50: 220 nM

## CSc1ccc(Nc2c3ccccc3nc3ccccc23)cc1
[1]
  inhibition: 79.7%
[2]
  IC50: 740 nM

## Fc1ccc(C(c2ccc(F)cc2)N2CCN(c3ccc(Nc4c5ccccc5nc5ccccc45)cc3)CC2)cc1
[1]
  inhibition: 68.1%
[2]
  IC50: 710 nM

## N#Cc1ccc(Nc2c3ccccc3nc3ccccc23)cc1
[1]
  inhibition: 29.8%

## Cc1ccc2cc(Nc3c4ccccc4nc4ccccc34)ccc2n1
[1]
  inhibition: 68.6%
[2]
  IC50: 3860 nM

## c1ccc(Nc2c3ccccc3nc3ccccc23)cc1
[1]
  inhibition: 99.2%
[2]
  IC50: 1050 nM

## CN1CCN(c2ccc(Nc3c4ccccc4nc4c(N(C)C)cccc34)cc2)CC1
[1]
  inhibition: 97%
[2]
  IC50: 6030 nM

## CCn1c2ccccc2c2ccc(Nc3c4ccccc4nc4ccccc34)cc21
[1]
  inhibition: 97.2%
[2]
  IC50: 700 nM

## c1ccc2c(Nc3ccc(N4CCOCC4)cc3)c3ccccc3nc2c1
[1]
  inhibition: 100%
[2]
  IC50: 450 nM

## CN1CCN(Cc2ccc(Nc3c4ccccc4nc4ccccc34)cc2)CC1
[1]
  inhibition: 45.6%

## c1ccc2c(Nc3ccc(N4CCCCC4)cc3)c3ccccc3nc2c1
[1]
  inhibition: 25%

## NS(=O)(=O)c1ccc(Nc2c3ccccc3nc3ccccc23)cc1
[1]
  inhibition: 4.01%

## Nc1ccccc1Nc1c2ccccc2nc2ccccc12
[1]
  inhibition: 100%
[2]
  IC50: 8230 nM

## COc1ccc2c(Nc3ccc(N4CCN(C)CC4)cc3)c3ccccc3nc2c1
[1]
  inhibition: 100%
[2]
  IC50: 140 nM

## CCN1CCN(c2ccc(Nc3c4ccccc4nc4ccccc34)cc2)CC1
[1]
  inhibition: 100%
[2]
  IC50: 110 nM

## Nc1ccc(Sc2c3ccccc3nc3ccccc23)cc1
[1]
  inhibition: 100%
[2]
  IC50: 970 nM

## CC(C)c1ccc2nc3ccccc3c(Nc3ccc(N4CCN(C)CC4)cc3)c2c1
[1]
  inhibition: 100%
[2]
  IC50: 230 nM

## Cc1cc2nc3ccccc3c(Nc3ccc(N4CCN(C)CC4)cc3)c2cc1C
[1]
  inhibition: 100%
[2]
  IC50: 85 nM

## Cc1ccc2nc3c(C)c(C)ccc3c(Nc3ccc(N4CCN(C)CC4)cc3)c2c1
[1]
  inhibition: 100%
[2]
  IC50: 100 nM

## COc1cc(NS(C)(=O)=O)ccc1Nc1c2ccccc2nc2ccccc12 [AMSACRINE]
[1]
  inhibition: 100%
[2]
  IC50: 880 nM

## Nc1ccc(Nc2c3ccccc3nc3ccccc23)cc1
[1]
  inhibition: 100%
[2]
  IC50: 600 nM

## COc1ccc(Nc2c3ccccc3nc3ccccc23)cc1
[1]
  inhibition: 100%
[2]
  IC50: 1160 nM

## CC(=O)Nc1ccc(Nc2c3ccccc3nc3ccccc23)cc1
[1]
  inhibition: 67.8%
[2]
  IC50: 3540 nM

## c1ccc(CN2CCN(c3ccc(Nc4c5ccccc5nc5ccccc45)cc3)CC2)cc1
[1]
  inhibition: 97%
[2]
  IC50: 2390 nM

## COc1cccc2c(Nc3ccc(N4CCN(C)CC4)cc3)c3ccccc3nc12
[1]
  inhibition: 100%
[2]
  IC50: 130 nM

## CC(C)c1ccc(Nc2c3ccccc3nc3ccccc23)cc1
[1]
  inhibition: 43.4%

## O=C1COCCN1c1ccc(Nc2c3ccccc3nc3ccccc23)cc1
[1]
  inhibition: 41%

## Nc1ccc(Oc2c3ccccc3nc3ccccc23)cc1
[1]
  inhibition: 100%
[2]
  IC50: 1720 nM

## COc1ccc2nc3ccccc3c(Nc3ccc(N4CCN(C)CC4)cc3)c2c1
[1]
  inhibition: 100%
[2]
  IC50: 230 nM

## CN1CCN(c2ccc(Nc3c4ccccc4nc4ccc(Cl)cc34)cc2)CC1
[1]
  inhibition: 100%
[2]
  IC50: 280 nM

## CS(=O)(=O)Nc1ccc(Nc2c3ccccc3nc3ccccc23)cc1
[1]
  inhibition: 100%
[2]
  IC50: 660 nM

## Cc1ccc(Nc2c3ccccc3nc3ccccc23)cc1
[1]
  inhibition: 57.9%
[2]
  IC50: 3620 nM
